Tests used:
Hepatotoxicity [1] = test system: Hepatotoxicity;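 as to HepSE bilirubinemia: bilirubinemia hepatic side effect score drawn from the DILIps training data, a prediction system for drug-induced liver injury; call rule not given here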;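 as to HepSE cholelithiasis: hepatic side effect score for cholelithiasis, drawn from the DILIps training data for predicting drug-induced liver injury; call rule not given here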;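 as to HepSE cirrhosis: cirrhosis hepatic side effect score taken from the DILIps (drug-induced liver injury prediction) training set; call rule not given here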;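 as to HepSE elevated liver function tests: hepatic side effect score for raised liver function tests, as recorded in the DILIps training set used for predicting drug-induced liver injury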;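 as to HepSE jaundice: Jaundice-related hepatic side-effect score drawn from the training data of the DILIps (drug-induced liver injury prediction system); call rule not given here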;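 as to HepSE liver function tests abnormal: hepatic side effect score taken from the DILIps (drug-induced liver injury prediction system) training data, here covering abnormal liver function test findings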
Hepatotoxicity [2] = test system: Hepatotoxicity; remark: listed apart in the source;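 as to HepSE bilirubinemia: bilirubinemia hepatic side effect score drawn from the DILIps training data, a prediction system for drug-induced liver injury; call rule not given here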;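 as to HepSE cholelithiasis: hepatic side effect score for cholelithiasis, drawn from the DILIps training data for predicting drug-induced liver injury; call rule not given here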;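 as to HepSE cirrhosis: cirrhosis hepatic side effect score taken from the DILIps (drug-induced liver injury prediction) training set; call rule not given here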;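 as to HepSE elevated liver function tests: hepatic side effect score for raised liver function tests, as recorded in the DILIps training set used for predicting drug-induced liver injury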;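 as to HepSE jaundice: Jaundice-related hepatic side-effect score drawn from the training data of the DILIps (drug-induced liver injury prediction system); call rule not given here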;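 as to HepSE liver function tests abnormal: hepatic side effect score taken from the DILIps (drug-induced liver injury prediction system) training data, here covering abnormal liver function test findings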
Hepatotoxicity [3] = test system: Hepatotoxicity; remark: listed apart in the source;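 as to HepSE bilirubinemia: bilirubinemia hepatic side effect score drawn from the DILIps training data, a prediction system for drug-induced liver injury; call rule not given here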;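 as to HepSE cirrhosis: cirrhosis hepatic side effect score taken from the DILIps (drug-induced liver injury prediction) training set; call rule not given here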;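 as to HepSE elevated liver function tests: hepatic side effect score for raised liver function tests, as recorded in the DILIps training set used for predicting drug-induced liver injury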;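 as to HepSE jaundice: Jaundice-related hepatic side-effect score drawn from the training data of the DILIps (drug-induced liver injury prediction system); call rule not given here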;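 as to HepSE liver function tests abnormal: hepatic side effect score taken from the DILIps (drug-induced liver injury prediction system) training data, here covering abnormal liver function test findings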
Hepatotoxicity [4] = test system: Hepatotoxicity; remark: listed apart in the source;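 as to HepSE bilirubinemia: bilirubinemia hepatic side effect score drawn from the DILIps training data, a prediction system for drug-induced liver injury; call rule not given here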;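 as to HepSE cirrhosis: cirrhosis hepatic side effect score taken from the DILIps (drug-induced liver injury prediction) training set; call rule not given here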;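 as to HepSE elevated liver function tests: hepatic side effect score for raised liver function tests, as recorded in the DILIps training set used for predicting drug-induced liver injury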;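 as to HepSE jaundice: Jaundice-related hepatic side-effect score drawn from the training data of the DILIps (drug-induced liver injury prediction system); call rule not given here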;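 as to HepSE liver function tests abnormal: hepatic side effect score taken from the DILIps (drug-induced liver injury prediction system) training data, here covering abnormal liver function test findings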
Hepatotoxicity [5] = test system: Hepatotoxicity; remark: listed apart in the source
Hepatotoxicity [6] = test system: Hepatotoxicity; remark: listed apart in the source
Hepatotoxicity [7] = test system: Hepatotoxicity; remark: listed apart in the source
Hepatotoxicity [8] = test system: Hepatotoxicity; remark: listed apart in the source
Hepatotoxicity [9] = test system: Hepatotoxicity; remark: listed apart in the source
Hepatotoxicity [10] = test system: Hepatotoxicity; remark: listed apart in the source
Hepatotoxicity [11] = test system: Hepatotoxicity; remark: listed apart in the source
Hepatotoxicity [12] = test system: Hepatotoxicity; remark: listed apart in the source
Hepatotoxicity [13] = test system: Hepatotoxicity; remark: listed apart in the source
Hepatotoxicity [14] = test system: Hepatotoxicity; remark: listed apart in the source

HYDROXOCOBALAMIN
HepSE_liver function tests abnormal (Hepatotoxicity [1]): 0
HepSE_cirrhosis (Hepatotoxicity [2]): 0
HepSE_elevated liver function tests (Hepatotoxicity [3]): 0
HepSE_jaundice (Hepatotoxicity [4]): 0
HepSE_bilirubinemia (Hepatotoxicity [5]): 0
HepSE_cholelithiasis (Hepatotoxicity [6]): 0
HepSE_hepatic necrosis (Hepatotoxicity [7]): 0
HepSE_hepatic failure (Hepatotoxicity [8]): 0
HepSE_liver fatty (Hepatotoxicity [9]): 0
HepSE_liver disease (Hepatotoxicity [10]): 0
HepSE_Combined Scores (Hepatotoxicity [11]): 0
HepSE_cholecystitis (Hepatotoxicity [12]): 0
HepSE_hepatitis (Hepatotoxicity [13]): 0
HepSE_hepatomegaly (Hepatotoxicity [14]): 0

O=C(CCCCC(=O)Nc1c(I)cc(I)c(C(=O)O)c1I)Nc1c(I)cc(I)c(C(=O)O)c1I [IODIPAMIDE]
HepSE_liver function tests abnormal (Hepatotoxicity [1]): 0
HepSE_cirrhosis (Hepatotoxicity [2]): 0
HepSE_elevated liver function tests (Hepatotoxicity [3]): 0
HepSE_jaundice (Hepatotoxicity [4]): 0
HepSE_bilirubinemia (Hepatotoxicity [5]): 0
HepSE_cholelithiasis (Hepatotoxicity [6]): 0
HepSE_hepatic necrosis (Hepatotoxicity [7]): 0
HepSE_hepatic failure (Hepatotoxicity [8]): 0
HepSE_liver fatty (Hepatotoxicity [9]): 0
HepSE_liver disease (Hepatotoxicity [10]): 0
HepSE_Combined Scores (Hepatotoxicity [11]): 0
HepSE_cholecystitis (Hepatotoxicity [12]): 0
HepSE_hepatitis (Hepatotoxicity [13]): 0
HepSE_hepatomegaly (Hepatotoxicity [14]): 0

CO[C@H]1C[C@@H]2CC[C@@H](C)[C@@](O)(O2)C(=O)C(=O)N2CCCC[C@H]2C(=O)O[C@H]([C@H](C)C[C@@H]2CC[C@@H](O)[C@H](OC)C2)CC(=O)[C@H](C)/C=C(\C)[C@@H](O)[C@@H](OC)C(=O)[C@H](C)C[C@H](C)/C=C/C=C/C=C/1C [SIROLIMUS]
HepSE_liver function tests abnormal (Hepatotoxicity [1]): 1
HepSE_cirrhosis (Hepatotoxicity [2]): 0
HepSE_elevated liver function tests (Hepatotoxicity [3]): 0
HepSE_jaundice (Hepatotoxicity [4]): 0
HepSE_bilirubinemia (Hepatotoxicity [5]): 1
HepSE_cholelithiasis (Hepatotoxicity [6]): 0
HepSE_hepatic necrosis (Hepatotoxicity [7]): 1
HepSE_hepatic failure (Hepatotoxicity [8]): 0
HepSE_liver fatty (Hepatotoxicity [9]): 0
HepSE_liver disease (Hepatotoxicity [10]): 0
HepSE_Combined Scores (Hepatotoxicity [11]): 3
HepSE_cholecystitis (Hepatotoxicity [12]): 0
HepSE_hepatitis (Hepatotoxicity [13]): 0
HepSE_hepatomegaly (Hepatotoxicity [14]): 0

CNC(=C[N+](=O)[O-])NCCSCc1csc(CN(C)C)n1 [NIZATIDINE]
HepSE_liver function tests abnormal (Hepatotoxicity [1]): 0
HepSE_cirrhosis (Hepatotoxicity [2]): 0
HepSE_elevated liver function tests (Hepatotoxicity [3]): 0
HepSE_jaundice (Hepatotoxicity [4]): 1
HepSE_bilirubinemia (Hepatotoxicity [5]): 0
HepSE_cholelithiasis (Hepatotoxicity [6]): 0
HepSE_hepatic necrosis (Hepatotoxicity [7]): 0
HepSE_hepatic failure (Hepatotoxicity [8]): 0
HepSE_liver fatty (Hepatotoxicity [9]): 0
HepSE_liver disease (Hepatotoxicity [10]): 0
HepSE_Combined Scores (Hepatotoxicity [11]): 2
HepSE_cholecystitis (Hepatotoxicity [12]): 0
HepSE_hepatitis (Hepatotoxicity [13]): 1
HepSE_hepatomegaly (Hepatotoxicity [14]): 0

CC(C)=CCN1CC[C@]2(C)c3cc(O)ccc3C[C@H]1[C@H]2C [(+)-PENTAZOCINE]
HepSE_liver function tests abnormal (Hepatotoxicity [1]): 0
HepSE_cirrhosis (Hepatotoxicity [2]): 0
HepSE_elevated liver function tests (Hepatotoxicity [3]): 0
HepSE_jaundice (Hepatotoxicity [4]): 0
HepSE_bilirubinemia (Hepatotoxicity [5]): 0
HepSE_cholelithiasis (Hepatotoxicity [6]): 0
HepSE_hepatic necrosis (Hepatotoxicity [7]): 0
HepSE_hepatic failure (Hepatotoxicity [8]): 0
HepSE_liver fatty (Hepatotoxicity [9]): 0
HepSE_liver disease (Hepatotoxicity [10]): 0
HepSE_Combined Scores (Hepatotoxicity [11]): 0
HepSE_cholecystitis (Hepatotoxicity [12]): 0
HepSE_hepatitis (Hepatotoxicity [13]): 0
HepSE_hepatomegaly (Hepatotoxicity [14]): 0

Cc1onc(-c2ccccc2)c1C(=O)N[C@@H]1C(=O)N2[C@@H]1SC(C)(C)[C@@H]2C(=O)O [OXACILLIN]
HepSE_liver function tests abnormal (Hepatotoxicity [1]): 1
HepSE_cirrhosis (Hepatotoxicity [2]): 0
HepSE_elevated liver function tests (Hepatotoxicity [3]): 0
HepSE_jaundice (Hepatotoxicity [4]): 0
HepSE_bilirubinemia (Hepatotoxicity [5]): 0
HepSE_cholelithiasis (Hepatotoxicity [6]): 0
HepSE_hepatic necrosis (Hepatotoxicity [7]): 0
HepSE_hepatic failure (Hepatotoxicity [8]): 0
HepSE_liver fatty (Hepatotoxicity [9]): 0
HepSE_liver disease (Hepatotoxicity [10]): 0
HepSE_Combined Scores (Hepatotoxicity [11]): 1
HepSE_cholecystitis (Hepatotoxicity [12]): 0
HepSE_hepatitis (Hepatotoxicity [13]): 0
HepSE_hepatomegaly (Hepatotoxicity [14]): 0

CCOc1nc2cccc(C(=O)O)c2n1Cc1ccc(-c2ccccc2-c2nnn[nH]2)cc1
HepSE_liver function tests abnormal (Hepatotoxicity [1]): 0
HepSE_cirrhosis (Hepatotoxicity [2]): 0
HepSE_elevated liver function tests (Hepatotoxicity [3]): 0
HepSE_jaundice (Hepatotoxicity [4]): 0
HepSE_bilirubinemia (Hepatotoxicity [5]): 0
HepSE_cholelithiasis (Hepatotoxicity [6]): 1
HepSE_hepatic necrosis (Hepatotoxicity [7]): 0
HepSE_hepatic failure (Hepatotoxicity [8]): 0
HepSE_liver fatty (Hepatotoxicity [9]): 0
HepSE_liver disease (Hepatotoxicity [10]): 0
HepSE_Combined Scores (Hepatotoxicity [11]): 2
HepSE_cholecystitis (Hepatotoxicity [12]): 0
HepSE_hepatitis (Hepatotoxicity [13]): 1
HepSE_hepatomegaly (Hepatotoxicity [14]): 0

CC(=O)Oc1ccccc1C(=O)O [ASPIRIN]
HepSE_liver function tests abnormal (Hepatotoxicity [1]): 0
HepSE_cirrhosis (Hepatotoxicity [2]): 0
HepSE_elevated liver function tests (Hepatotoxicity [3]): 0
HepSE_jaundice (Hepatotoxicity [4]): 0
HepSE_bilirubinemia (Hepatotoxicity [5]): 0
HepSE_cholelithiasis (Hepatotoxicity [6]): 0
HepSE_hepatic necrosis (Hepatotoxicity [7]): 0
HepSE_hepatic failure (Hepatotoxicity [8]): 0
HepSE_liver fatty (Hepatotoxicity [9]): 0
HepSE_liver disease (Hepatotoxicity [10]): 0
HepSE_Combined Scores (Hepatotoxicity [11]): 0
HepSE_cholecystitis (Hepatotoxicity [12]): 0
HepSE_hepatitis (Hepatotoxicity [13]): 0
HepSE_hepatomegaly (Hepatotoxicity [14]): 0

[Li] [LITHIUM]
HepSE_liver function tests abnormal (Hepatotoxicity [1]): 0
HepSE_cirrhosis (Hepatotoxicity [2]): 0
HepSE_elevated liver function tests (Hepatotoxicity [3]): 0
HepSE_jaundice (Hepatotoxicity [4]): 0
HepSE_bilirubinemia (Hepatotoxicity [5]): 0
HepSE_cholelithiasis (Hepatotoxicity [6]): 0
HepSE_hepatic necrosis (Hepatotoxicity [7]): 0
HepSE_hepatic failure (Hepatotoxicity [8]): 0
HepSE_liver fatty (Hepatotoxicity [9]): 0
HepSE_liver disease (Hepatotoxicity [10]): 0
HepSE_Combined Scores (Hepatotoxicity [11]): 0
HepSE_cholecystitis (Hepatotoxicity [12]): 0
HepSE_hepatitis (Hepatotoxicity [13]): 0
HepSE_hepatomegaly (Hepatotoxicity [14]): 0

C[C@H]1[C@H](NC(=O)/C(=N\OC(C)(C)C(=O)O)c2csc(N)n2)C(=O)N1S(=O)(=O)O [AZTREONAM]
HepSE_liver function tests abnormal (Hepatotoxicity [1]): 0
HepSE_cirrhosis (Hepatotoxicity [2]): 0
HepSE_elevated liver function tests (Hepatotoxicity [3]): 0
HepSE_jaundice (Hepatotoxicity [4]): 1
HepSE_bilirubinemia (Hepatotoxicity [5]): 0
HepSE_cholelithiasis (Hepatotoxicity [6]): 0
HepSE_hepatic necrosis (Hepatotoxicity [7]): 0
HepSE_hepatic failure (Hepatotoxicity [8]): 0
HepSE_liver fatty (Hepatotoxicity [9]): 0
HepSE_liver disease (Hepatotoxicity [10]): 0
HepSE_Combined Scores (Hepatotoxicity [11]): 2
HepSE_cholecystitis (Hepatotoxicity [12]): 0
HepSE_hepatitis (Hepatotoxicity [13]): 1
HepSE_hepatomegaly (Hepatotoxicity [14]): 0

NC[C@@H]1O[C@H](O[C@H]2[C@@H](O)[C@H](O[C@@H]3[C@@H](O)[C@H](N)C[C@H](N)[C@H]3O[C@H]3O[C@H](CN)[C@@H](O)[C@H](O)[C@H]3N)O[C@@H]2CO)[C@H](N)[C@@H](O)[C@@H]1O [FRAMYCETIN]
HepSE_liver function tests abnormal (Hepatotoxicity [1]; Liver): 0
HepSE_cirrhosis (Hepatotoxicity [2]; Liver): 0
HepSE_elevated liver function tests (Hepatotoxicity [3]; Liver): 0
HepSE_jaundice (Hepatotoxicity [4]; Liver): 0
HepSE_bilirubinemia (Hepatotoxicity [5]; Liver): 0
HepSE_cholelithiasis (Hepatotoxicity [6]; Liver): 0
HepSE_hepatic necrosis (Hepatotoxicity [7]; Liver): 0
HepSE_hepatic failure (Hepatotoxicity [8]; Liver): 0
HepSE_liver fatty (Hepatotoxicity [9]; Liver): 0
HepSE_liver disease (Hepatotoxicity [10]; Liver): 0
HepSE_Combined Scores (Hepatotoxicity [11]; Liver): 0
HepSE_cholecystitis (Hepatotoxicity [12]; Liver): 0
HepSE_hepatitis (Hepatotoxicity [13]; Liver): 0
HepSE_hepatomegaly (Hepatotoxicity [14]; Liver): 0

CC(C)n1c(/C=C/C(O)CC(O)CC(=O)O)c(-c2ccc(F)cc2)c2ccccc21 (configuration not stated) [FLUVASTATIN]
HepSE_liver function tests abnormal (Hepatotoxicity [1]; Liver): 0
HepSE_cirrhosis (Hepatotoxicity [2]; Liver): 1
HepSE_elevated liver function tests (Hepatotoxicity [3]; Liver): 0
HepSE_jaundice (Hepatotoxicity [4]; Liver): 1
HepSE_bilirubinemia (Hepatotoxicity [5]; Liver): 0
HepSE_cholelithiasis (Hepatotoxicity [6]; Liver): 0
HepSE_hepatic necrosis (Hepatotoxicity [7]; Liver): 1
HepSE_hepatic failure (Hepatotoxicity [8]; Liver): 0
HepSE_liver fatty (Hepatotoxicity [9]; Liver): 0
HepSE_liver disease (Hepatotoxicity [10]; Liver): 0
HepSE_Combined Scores (Hepatotoxicity [11]; Liver): 4
HepSE_cholecystitis (Hepatotoxicity [12]; Liver): 0
HepSE_hepatitis (Hepatotoxicity [13]; Liver): 1
HepSE_hepatomegaly (Hepatotoxicity [14]; Liver): 0

O=C(O)CCc1nc(-c2ccccc2)c(-c2ccccc2)o1 [OXAPROZIN]
HepSE_liver function tests abnormal (Hepatotoxicity [1]): 0
HepSE_cirrhosis (Hepatotoxicity [2]): 0
HepSE_elevated liver function tests (Hepatotoxicity [3]): 0
HepSE_jaundice (Hepatotoxicity [4]): 1
HepSE_bilirubinemia (Hepatotoxicity [5]): 0
HepSE_cholelithiasis (Hepatotoxicity [6]): 0
HepSE_hepatic necrosis (Hepatotoxicity [7]): 0
HepSE_hepatic failure (Hepatotoxicity [8]): 1
HepSE_liver fatty (Hepatotoxicity [9]): 0
HepSE_liver disease (Hepatotoxicity [10]): 0
HepSE_Combined Scores (Hepatotoxicity [11]): 3
HepSE_cholecystitis (Hepatotoxicity [12]): 0
HepSE_hepatitis (Hepatotoxicity [13]): 1
HepSE_hepatomegaly (Hepatotoxicity [14]): 0

Source: ChEMBL document CHEMBL1909294, “Translating clinical findings into knowledge in drug safety evaluation--drug induced liver injury prediction system (DILIps)” (PLoS Comput Biol, 2011)
